Data taken from ChEMBL document CHEMBL6092183, “Rapid Affinity and Microsomal Stability Ranking of Crude Mixture Libraries of Histone Deacetylase Inhibitors” (ACS Med Chem Lett, 2024).
Values joined by “and” are separate entries in the source; they are usually repeats but may differ in a detail not shown here. Equal entries are not always repeated.

Key:
in vitro = conditions: rat, microsomes
Histone deacetylase 2 = Histone deacetylase 2 (Homo sapiens, UniProt Q92769); experiment: Inhibition of HDAC2 (unknown origin) incubated for 30 mins by ALIS assay
Histone deacetylase 2, sequence (Q92769 whole entry): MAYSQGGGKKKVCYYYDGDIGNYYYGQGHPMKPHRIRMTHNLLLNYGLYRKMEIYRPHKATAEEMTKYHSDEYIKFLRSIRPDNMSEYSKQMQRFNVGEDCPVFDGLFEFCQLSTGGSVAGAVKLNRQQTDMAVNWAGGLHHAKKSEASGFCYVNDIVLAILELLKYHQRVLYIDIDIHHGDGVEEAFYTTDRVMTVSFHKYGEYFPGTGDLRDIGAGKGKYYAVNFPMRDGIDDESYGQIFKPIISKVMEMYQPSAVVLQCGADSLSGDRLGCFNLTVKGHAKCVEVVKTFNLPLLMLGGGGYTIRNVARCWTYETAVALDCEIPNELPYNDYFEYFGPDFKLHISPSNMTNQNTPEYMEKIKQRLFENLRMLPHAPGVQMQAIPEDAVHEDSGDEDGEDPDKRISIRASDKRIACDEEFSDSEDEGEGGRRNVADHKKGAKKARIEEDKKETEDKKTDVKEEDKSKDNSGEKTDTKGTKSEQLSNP

[1] = human, microsomes
Description: Metabolic stability in human liver microsomes

SMILES | microsomal CLint at 0.75 h, 0.3 µM (in vitro) [µL/min/mg] | IC50 (Histone deacetylase 2) | Stability [1]
O=C(NCCCC[C@H](NC(=O)C1CN2CCC1CC2)c1ncc(-c2ccc3ccccc3c2)[nH]1)c1c(O)cccc1F (some centres not stated) | 1240 | 19.1 nM | –
O=C(NCCCC[C@H](NC(=O)C1CC12CCCC2)c1ncc(-c2ccc3ccccc3c2)[nH]1)c1c(O)cccc1F (some centres not stated) | 811 | 441 nM and 144 nM | –
CCC(=O)CCCCC[C@H](NC(=O)C1C2COCC21)c1ncc(-c2ccccc2)[nH]1 (some centres not stated) | 75.7 | 295 nM | Stable
CCC(=O)CCCCC[C@H](NC(=O)C1C2CNCC21)c1ncc(-c2ccccc2)[nH]1 (some centres not stated) | 11.8 | 112 nM | –
CCCC[C@H](NC(=O)[C@H](CN)c1c[nH]c2ccc(OC)cc12)c1nc(-c2ccc(C#N)cc2)c[nH]1 | 68.9 | – | Stable
CCC(=O)CCCCC[C@H](NC(=O)C1CC12CCCC2)c1ncc(-c2ccccc2)[nH]1 (some centres not stated) | 3510 | – | –
O=C(NCCCC[C@H](NC(=O)C1C2CNCC21)c1ncc(-c2ccc3ccccc3c2)[nH]1)c1c(O)cccc1F (some centres not stated) | 57.5 | 37 nM | –
O=C(NCCCC[C@H](NC(=O)C1C2COCC21)c1ncc(-c2ccc3ccccc3c2)[nH]1)c1c(O)cccc1F (some centres not stated) | 1150 | 45.4 nM and 89.8 nM | –
CCC(=O)CCCCC[C@H](NC(=O)CC1CN2CCC1CC2)c1ncc(-c2ccccc2)[nH]1 (some centres not stated) | 91.8 | 211 nM | –
CCCC[C@H](NC(=O)[C@H](CN)c1c[nH]c2ccc(OC)cc12)c1nc(-c2ccn(C)c(=O)c2)c[nH]1 | 9.9 | 428 nM | –
CCC(=O)CCCCC[C@H](NC(=O)C1CC12CN(C(C)=O)C2)c1ncc(-c2ccccc2)[nH]1 (some centres not stated) | 66.8 | 423 nM | –
CCCC[C@H](NC(=O)[C@H](CN)c1c[nH]c2ccc(OC)cc12)c1nc(-c2ccc(C3CC(C)(C)C3)cc2)c[nH]1 | 110 | – | –
CC(=O)N1CC2(CC2C(=O)N[C@@H](CCCCNC(=O)c2c(O)cccc2F)c2ncc(-c3ccc4ccccc4c3)[nH]2)C1 (some centres not stated) | 310 | 64.5 nM | –
CCCC[C@H](NC(=O)[C@H](CN)c1c[nH]c2ccc(OC)cc12)c1nc(-c2cccc(C)c2)c[nH]1 | 195 | – | –
O=C(NCCCC[C@H](NC(=O)C1CC12CCNCC2)c1ncc(-c2ccc3ccccc3c2)[nH]1)c1c(O)cccc1F (some centres not stated) | 70.1 | – | –
CCCC[C@H](NC(=O)[C@H](CN)c1c[nH]c2ccc(OC)cc12)c1nc(-c2cc(C)cc(C)c2)c[nH]1 | 51 | – | –
O=C(NCCCC[C@H](NC(=O)C1CC12CCCCC2)c1ncc(-c2ccc3ccccc3c2)[nH]1)c1c(O)cccc1F (some centres not stated) | 984 | 432 nM | –
O=C(NCCCC[C@H](NC(=O)C1CCCCC12CC2)c1ncc(-c2ccc3ccccc3c2)[nH]1)c1c(O)cccc1F (some centres not stated) | 805 | – | –
CCCC[C@H](NC(=O)[C@H](CN)c1c[nH]c2ccc(OC)cc12)c1nc(-c2ccc(OC)cc2)c[nH]1 | 164 | – | Stable
CCC(=O)CCCCC[C@H](NC(=O)C1CC2CCN1CC2)c1ncc(-c2ccccc2)[nH]1 (some centres not stated) | 144 | 96.8 nM | –
CCC(=O)CCCCC[C@H](NC(=O)C1CN2CCC1CC2)c1ncc(-c2ccccc2)[nH]1 (some centres not stated) | 134 | 146 nM | –
O=C(NCCCC[C@H](NC(=O)C1C2CCNC21)c1ncc(-c2ccc3ccccc3c2)[nH]1)c1c(O)cccc1F (some centres not stated) | 754 | – | –
CS(=O)(=O)N1CC2(CC2C(=O)N[C@@H](CCCCNC(=O)c2c(O)cccc2F)c2ncc(-c3ccc4ccccc4c3)[nH]2)C1 (some centres not stated) | 693 | 48 nM and 12 nM | –
CCCC[C@H](NC(=O)[C@H](CN)c1c[nH]c2ccc(OC)cc12)c1nc(-c2ccc(-c3ccn(C)n3)cc2)c[nH]1 | 83.4 | – | –
CCCC[C@H](NC(=O)[C@H](CN)c1c[nH]c2ccc(OC)cc12)c1nc(-c2ccc3c(C)noc3c2)c[nH]1 | 192 | – | –
